# Assay results as given in patent US20100062065A1, “PHARMACEUTICAL COMPOSITION CONTAINING NAPHTHOQUINONE-BASED COMPOUND FOR INTESTINE DELIVERY SYSTEM” (MAZENCE INC., priority 2006, published 2010).
# Where “and” joins values, the source holds several entries; their conditions need not be identical. Identical values can stand only once.
# Legend:
# [1] = Determination of partition coefficients (octanol / phosphate buffer pH 7.4); assay type: physicochemical; details: for Partition Coefficient: octanol/phosphate buffer pH 7.4, samples 1-3
# Method: Octanol and phosphate buffer (pH 7.4) were saturated with a counter-solvent for 24 hours or more. A given amount of a naphthoquinone-based compound (Compound 1 of Table 1 below) was dissolved in the thus-saturated octanol, mixed with triple-distilled water and stirred using a magnetic stirrer at 200 rpm for 13 hours or more. Samples were taken, filtered through a 0.45 μm RC Membrane filter and diluted with methanol. The diluted sample materials were analyzed by HPLC. A partition coefficient versus an amount of Compound 1 was determined.
# [2] = Intestinal absorption, single-pass intestinal perfusion; assay type: in vivo, rats
# Method: In order to determine intestinal absorption (%) of a naphthoquinone-based compound, a single-pass intestinal perfusion technique was carried out in internal organs of rats, including jejunum, ileum and large intestine. The steady-state intestinal effective permeability (Peff) can be expressed according to the following equation. Peff=[−Qin·ln(Cout/Cin)]/A • Peff: Steady-state intestinal effective permeability (cm/s) • Qin: Perfusion flow rate (0.4 mL/min) • Cin, Cout: Inlet and fluid-transport-corrected outlet solution concentrations • A: Mass transfer surface area within intestinal segment (2πrL), • r, L: Radius and length of intestinal segment The radius (r) and length (L) of the jejunum, ileum and large intestine used in experiments are as follows: (r: jejunum, 0.21 cm; ileum, 0.22 cm; large intestine, 0.23 cm, and L: 10 cm) The steady-state was confirmed by the ratio of the outlet to inlet concentrations (Cout/Cin) versus time. The steady-state is established when the Cout/Cin ratio of the naphthoquinone-based compound is maintained at a constant value (n=3, error bars with respect to S.D.). Residual amounts of the naphthoquinone-based compound in the above three intestinal organs were measured at different time points. The outlet steady-state concentration of the compound under perfusion was calculated. The results thus obtained are given in Table 4 and FIG. 2, respectively. The effective permeability was measured at 4 points of each intestinal tissue.
# [3] = orally administered; cited from earlier work
Compound,octanol-solubility higher than water-solubility [1] [fold],"logD ([1]; octanol/phosphate buffer pH 7.4, pH 7.4, average over all amounts and samples, read-out: average partition coefficient)",Partition Coefficient ([1]; 100 μg/mL),Partition Coefficient ([1]; 200 μg/mL),Partition Coefficient ([1]; 2000 μg/mL),Partition Coefficient ([1]; Excess),average partition coefficient ([1]; pH 7.4),Peff × 10^−5 ([2]; Duodenum),Peff × 10^−5 ([2]; Ileum),Peff × 10^−5 ([2]; Jejunum),Peff × 10^−5 ([2]; Large intestine),absorption rate [3] [%]
CC1(C)CCC2=C(O1)c1ccccc1C(=O)C2=O [Compound 1],100,2.3,2.17 and 2.02 and 1.99,2.40 and 2.20 and 2.24,2.59 and 2.62 and 2.58,2.65 and 2.05 and 2.08,* average partition coefficient: 2.299 (σ = 0.255),0.79 ± 0.33 10^−5 cm/s,5.15 ± 1.49 10^−5 cm/s,2.37 ± 1.17 10^−5 cm/s,7.82 ± 0.93 10^−5 cm/s,–
C[C@H]1COC2=C1C(=O)C(=O)c1c2ccc2c1CCCC2(C)C [cryptotanshinone],–,–,–,–,–,–,–,–,–,–,–,2.05
